Drawing on the OPERA property sets (Mansouri et al. 2018), this text covers logP for 13 compounds.

Molecules are shown by their SMILES.

Consider `CC12CC1(C)C(=O)N(c1cc(Cl)cc(Cl)c1)C2=O` (stereo not drawn), for which the logP turned out to be 3.08.
Regarding `OC(c1ccc(Cl)cc1)(c1ccc(Cl)cc1)C(Cl)(Cl)Cl`, the logP turned out to be 5.02.
To `C#CCOS(=O)OC1CCCCC1Oc1ccc(C(C)(C)C)cc1` (stereo not drawn) belongs 5.
On to `CC(C)OP(=O)(OC(C)C)SCc1ccccc1`, for which the logP came to 3.34.
Compound `Cc1ccc(S(=O)(=O)Oc2c(C(=O)c3ccc(Cl)cc3Cl)c(C)nn2C)cc1` showed a logP of 3.9.
To `CC(C)OC(=O)C(C(=O)OC(C)C)=C1SCCS1` belongs 2.88; to `Clc1nc(Cl)nc(Nc2ccccc2Cl)n1`, 3.88.
Under `CC(C)N1C(=O)c2ccccc2NS1(=O)=O` stands 2.34; under `O=C(NC(=O)c1c(F)cccc1F)Nc1cc(Cl)c(F)c(Cl)c1F`, 4.56; under `CCOP(=S)(OCC)Oc1cc(-c2ccccc2)on1`, 3.73.
`CCOP(=O)(Sc1ccccc1)Sc1ccccc1` displayed a logP of 3.48.
With `CCO/N=C(\OC(=O)c1ccccc1)c1c(OC)ccc(Cl)c1OC`, the logP is 3.73.
Under `CCCOP(=S)(OCCC)SCC(=O)N1CCCCC1C` (stereo not drawn) stands 4.04.
